Test results reported in US20240382494A1, “THERAPEUTIC COMPOUNDS” (priority 2023, published 2024).
Like-named read-outs stand apart in the source and are kept apart here.

Legend:
[1] = Cytotoxicity assay in Vero E6 cells (neutral red uptake); assay type: cell-based; details: African green monkey
Protocol: Briefly, 80.000 cells/ml of the tested cell lines were dispensed into 96-well cell culture plates at 100 μl per well Twenty-four hours later, the growth medium was removed and washed with 150 μl of PBS buffer. Two hundred microliters of fresh serum-free medium containing serial diluted compounds was added to each well. After incubating for 2 days at 37° C., the medium was removed and replaced with 100 μl of DMEM medium containing neutral red (40 μg/ml) and incubated for 2 to 4 hours at 37° C. The amount of neutral red taken up was determined by measuring the absorbance at 540 nm using a Multiskan FC Microplate Photometer (Thermo Fisher Scientific) The CC50 values were calculated from best-fit dose-response curves with variable slope in Prism 8.

[2] = biological target: SARS-CoV-2 PLpro (Severe acute respiratory syndrome coronavirus 2, UniProt P0DTD1); experiment: FRET-based PLpro enzymatic assay; assay type: biochemical
Protocol: The SARS-CoV-2 PL^pro enzymatic assays were carried out as follows. The assay was assembled in 96-well plates with 100 μl of 200 nM PL^Pro protein in PL^Pro reaction buffer [50 mM Hepes (pH 7.5), 0.01% Triton X-100, and 5 mM DTT]. Then, 1 μl of testing compound at various concentrations was added to each well and incubated at 30° C. for 30 minutes. The enzymatic reaction was initiated by adding 1 μl of 1 mM FRET substrate (the final substrate concentration is 10 μM). The reaction was monitored in a Cytation 5 image reader with filters for excitation at 360/40 nm and emission at 460/40 nm at 30° C. for 1 hour. The initial velocity of the enzymatic reaction with and without testing compounds was calculated by linear regression for the first 15 minutes of the kinetic progress curve. The IC50 values were calculated by plotting the initial velocity against various concentrations of testing compounds with a dose-response function in Prism 8 software.

[3] = Vero E6 cells, 2 days at 37° C., neutral red uptake, read-out: Vero CC50
[4] = 200 nM PLpro, 10 μM FRET substrate, 30 min preincubation at 30° C., read-out: IC50

SMILES | CC50 at 2 days [1, 3] | IC50 [2, 4] | CC50 at 2 days [1] | IC50 [2]
Cc1ccc(OC[C@@H]2CCCN2C)cc1C(=O)N[C@H](C)c1cc(-c2ccn(C)n2)nc2ccccc12 [Example 98, 2-methyl-N—((R)-1-(2-(1-methyl-1H-pyrazol-3-yl)quinolin-4-yl)ethyl)-5-(((S)-1-methylpyrrolidin-2-yl)methoxy)benzamide] | 18.8 ± 1.49 µM | < 500 nM | – | –
Cc1ccc(OC[C@H]2CCCN2C)cc1C(=O)N[C@H](C)c1cc(-c2cnn(C)c2)nc2ccccc12 [Example 83, 2-methyl-N—((R)-1-(2-(1-methyl-1H-pyrazol-4-yl)quinolin-4-yl)ethyl)-5-(((R)-1-methylpyrrolidin-2-yl)methoxy)benzamide] | – | < 500 nM | – | –
Cc1ccc(N2CC3CCC(C2)N3C)cc1C(=O)N[C@H](C)c1cc(-c2ccn(C)n2)nc2ccccc12 [Example 102, 2-methyl-N—((R)-1-(2-(1-methyl-1H-pyrazol-3-yl)quinolin-4-yl)ethyl)-5-(8-methyl-3,8-diazabicyclo[3.2.1]octan-3-yl)benzamide] | – | – | 15.2 ± 1.09 µM | < 500 nM
Cc1ccc(OCCN(C)C)cc1C(=O)N[C@H](C)c1cc(OCc2c(F)c(F)c(F)c(F)c2F)nc2ccccc12 [Example 58, (R)-5-(2-(dimethylamino)ethoxy)-2-methyl-N-(1-(2-((perfluorophenyl)methoxy)quinolin-4-yl)ethyl)benzamide] | > 50 µM | > 5000 nM | – | –
COc1cccc(-c2cc([C@@H](C)NC(=O)c3cc(OCCN(C)C)ccc3C)c3ccccc3n2)c1 [Example 67, (R)-5-(2-(dimethylamino)ethoxy)-N-(1-(2-(3-methoxyphenyl)-quinolin-4-yl)ethyl)-2-methylbenzamide] | 17.2 ± 3.25 µM | < 500 nM | – | –
Cc1ccc(OCCN(C)C)cc1C(=O)N[C@H](C)c1cc(-c2cnn(CCN(C)C)c2)nc2ccccc12 [Example 12, (R)-5-(2-(dimethylamino)ethoxy)-N-(1-(2-(1-(2-(dimethylamino)ethyl)-1H-pyrazol-4-yl)quinolin-4-yl)ethyl)-2-methylbenzamide] | 114 ± 18.7 µM | < 500 nM | – | –
Cc1ccc(OC[C@@H]2CCCN2C)cc1C(=O)N[C@H](C)c1cc(-c2cnn(C)c2)nc2ccccc12 [Example 84, 2-methyl-N—((R)-1-(2-(1-methyl-1H-pyrazol-4-yl)quinolin-4-yl)ethyl)-5-(((S)-1-methylpyrrolidin-2-yl)methoxy)benzamide] | 103 ± 24.4 µM | < 500 nM | – | –
CCn1ccc(-c2cc([C@@H](C)NC(=O)c3cc(OC[C@@H]4CCCN4C)ccc3C)c3ccccc3n2)n1 [Example 109, N—((R)-1-(2-(1-ethyl-1H-pyrazol-3-yl)quinolin-4-yl)ethyl)-2-methyl-5-(((S)-1-methylpyrrolidin-2-yl)methoxy)benzamide] | 27 ± 1.66 µM | – | – | –
Cc1ccc(OC[C@@H]2C[C@@H](F)CN2C)cc1C(=O)N[C@H](C)c1cc(-c2cnn(C)c2)nc2ccccc12 [Example 85, 5-(((2S,4R)-4-fluoro-1-methylpyrrolidin-2-yl)methoxy)-2-methyl-N—((R)-1-(2-(1-methyl-1H-pyrazol-4-yl)quinolin-4-yl)ethyl)benzamide] | 33.9 ± 3.74 µM | < 500 nM | – | –
Cc1ccc(N2C[C@H]3CN(C)C[C@H]3C2)cc1C(=O)NC1(c2cc(-c3cnn(C)c3)nc3ccccc23)CC1 [Example 113, 2-methyl-N-(1-(2-(1-methyl-1H-pyrazol-4-yl)quinolin-4-yl)cyclopropyl)-5-((3aR,6aS)-5-methylhexahydropyrrolo[3,4-c]pyrrol-2(1H)-yl)benzamide] | 56.1 µM | – | – | –
Cc1ccc(OCCN(C)C)cc1C(=O)N[C@H](C)c1cc(-c2cnn(CCO)c2)nc2ccccc12 [Example 22, (R)-5-(2-(dimethylamino)ethoxy)-N-(1-(2-(1-(2-hydroxyethyl)-1H-pyrazol-4-yl)quinolin-4-yl)ethyl)-2-methylbenzamide] | 153 ± 43.9 µM | < 500 nM | – | –
Cc1ccc(OC[C@@H]2CCN2C)cc1C(=O)N[C@H](C)c1cc(-c2cnn(C)c2)nc2ccccc12 [Example 75, 2-methyl-N—((R)-1-(2-(1-methyl-1H-pyrazol-4-yl)quinolin-4-yl)ethyl)-5-(((S)-1-methylazetidin-2-yl)methoxy)benzamide] | – | < 500 nM | – | –
Cc1ccc(OCCN(C)C)cc1C(=O)N[C@H](C)c1cc(-c2cnn(C3CC3)c2)nc2ccccc12 [Example 8, (R)—N-(1-(2-(1-cyclopropyl-1H-pyrazol-4-yl)quinolin-4-yl)ethyl)-5-(2-(dimethylamino)ethoxy)-2-methylbenzamide] | 63.1 ± 8.7 µM | < 500 nM | – | –
Cc1ccc(OCCN(C)C)cc1C(=O)N[C@H](C)c1cc(-c2cnn(CCC#N)c2)nc2ccccc12 [Example 59, (R)—N-(1-(2-(1-(2-cyanoethyl)-1H-pyrazol-4-yl)quinolin-4-yl)ethyl)-5-(2-(dimethylamino)ethoxy)-2-methylbenzamide] | 101 ± 15.2 µM | > 5000 nM | – | –
Cc1ccc(OCCN(C)C)cc1C(=O)N[C@H](C)c1cc(N2CCOCC2)nc2ccccc12 [Example 45, (R)-5-(2-(dimethylamino)ethoxy)-2-methyl-N-(1-(2-morpholinoquinoline-4-yl)ethyl)benzamide] | 166 ± 33.2 µM | 500 to 1000 nM | – | –
Cc1ccc(OCCN(C)C)cc1C(=O)N[C@H](C)c1cc(-c2cnn(CC(=O)N(C)C)c2)nc2ccccc12 [Example 71, (R)—N-(1-(2-(1-(2-(dimethylamino)-2-oxoethyl)-1H-pyrazol-4-yl)quinolin-4-yl)ethyl)-5-(2-(dimethylamino)ethoxy)-2-methylbenzamide] | > 250 µM | < 500 nM | – | –
Cc1ccc(N2CCN(C)CC2)cc1C(=O)NC1(c2cc(-c3cnn(C)c3)nc3ccccc23)CC1 [Example 111, 2-methyl-N-(1-(2-(1-methyl-1H-pyrazol-4-yl)quinolin-4-yl)cyclopropyl)-5-(4-methylpiperazin-1-yl)benzamide] | > 150 µM | – | – | –
Cc1ccc(OCCN(C)C)cc1C(=O)N[C@H](C)c1cc(-c2cnc3[nH]ncc3c2)nc2ccccc12 [Example 49, (R)—N-(1-(2-(1H-pyrazolo[3,4-b]pyridin-5-yl)quinolin-4-yl)-ethyl)-5-(2-(dimethylamino)-ethoxy)-2-methylbenzamide] | > 250 µM | – | – | –
Cc1ccc(OCCN(C)C)cc1C(=O)N[C@H](C)c1cc(-c2cn[nH]c2)nc2ccccc12 [Example 23, (R)—N-(1-(2-(1H-pyrazol-4-yl)quinolin-4-yl)ethyl)-5-(2-(dimethylamino)ethoxy)-2-methylbenzamide] | – | < 500 nM | – | –
Cc1ccc(OCCN(C)C)cc1C(=O)N[C@H](C)c1cc(-c2cnn(C)c2)nc2ccccc12 [Example 7, (R)-5-(2-(dimethylamino)ethoxy)-2-methyl-N-(1-(2-(1-methyl-1H-pyrazol-4-yl)quinolin-4-yl)ethyl)benzamide] | – | < 500 nM | – | –
Cc1ccc(N2C[C@H]3CN(C)C[C@H]3C2)cc1C(=O)N[C@H](C)c1cc(-c2cnn(C)c2)nc2ccccc12 [Example 81, 2-methyl-N—((R)-1-(2-(1-methyl-1H-pyrazol-4-yl)quinolin-4-yl)ethyl)-5-((3aR,6aS)-5-methylhexahydropyrrolo[3,4-c]pyrrol-2(1H)-yl)benzamide] | – | < 500 nM | – | –
CCn1ccc(-c2cc([C@@H](C)NC(=O)c3cc(OC[C@@H]4CCN4C)ccc3C)c3ccccc3n2)n1 [Example 105, N—((R)-1-(2-(1-ethyl-1H-pyrazol-3-yl)quinolin-4-yl)ethyl)-2-methyl-5-(((S)-1-methyl-azetidin-2-yl)methoxy)benzamide] | – | < 500 nM | – | –
Cc1ccc(OCCN(C)C)cc1C(=O)N[C@H](C)c1cc(-c2ccc(CN3CCOCC3)o2)nc2ccccc12 [Example 72, (R)-5-(2-(dimethylamino)ethoxy)-2-methyl-N-(1-(2-(5-(morpholinomethyl)furan-2-yl)quinolin-4-yl)ethyl)benzamide] | – | < 500 nM | – | –
COc1ncc(-c2cc([C@@H](C)NC(=O)c3cc(OCCN(C)C)ccc3C)c3ccccc3n2)cn1 [Example 62, (R)-5-(2-(dimethylamino)ethoxy)-N-(1-(2-(2-methoxy-pyrimidin-5-yl)quinolin-4-yl)ethyl)-2-methylbenzamide] | – | > 5000 nM | – | –
Cc1ccc(N2CCN(C)[C@H](C)C2)cc1C(=O)N[C@H](C)c1cc(-c2cnn(C)c2)nc2ccccc12 [Example 79, 5-((R)-3,4-dimethylpiperazin-1-yl)-2-methyl-N—((R)-1-(2-(1-methyl-1H-pyrazol-4-yl)quinolin-4-yl)ethyl)benzamide] | – | < 500 nM | – | –
Cc1ccc(OCCN(C)C)cc1C(=O)N[C@@H](C)c1cc(-c2ccco2)nc2ccccc12 [Example 17, (S)-5-(2-(dimethylamino)ethoxy)-N-(1-(2-(furan-2-yl)quinolin-4-yl)ethyl)-2-methylbenzamide] | – | < 500 nM | – | –
Cc1ccc(OCCN(C)C)cc1C(=O)N[C@H](C)c1cc(-n2ccnc2)nc2ccccc12 [Example 46, (R)—N-(1-(2-(1H-imidazol-1-yl)quinolin-4-yl)ethyl)-5-(2-(dimethylamino)ethoxy)-2-methylbenzamide] | – | < 500 nM | – | –
